From PubChem BioAssay (NCI)
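Five concentrations, 48 hours, 96-well plates. At the GI50, growth is halved. At the TGI there is no net growth.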

Tests used:
Assay in all cases: NCI-60 cell line screen, 48 h
ACHN renal = test system: ACHN renal
NCI-H23 lung = test system: NCI-H23 lung
SK-MEL-2 melanoma = test system: SK-MEL-2 melanoma
RXF 393 renal = test system: RXF 393 renal
OVCAR-8 ovarian = test system: OVCAR-8 ovarian
NCI-H226 lung = test system: NCI-H226 lung
MALME-3M melanoma = test system: MALME-3M melanoma
NCI-H522 lung = test system: NCI-H522 lung
UACC-257 melanoma = test system: UACC-257 melanoma
OVCAR-5 ovarian = test system: OVCAR-5 ovarian
SNB-19 CNS = test system: SNB-19 CNS
DU-145 prostate = test system: DU-145 prostate
HCT-15 colon = test system: HCT-15 colon
BT-549 breast = test system: BT-549 breast
EKVX NSCLC = test system: EKVX NSCLC
COLO 205 colon = test system: COLO 205 colon
U251 CNS = test system: U251 CNS
HOP-62 NSCLC = test system: HOP-62 NSCLC
IGROV1 ovarian = test system: IGROV1 ovarian
SR leukemia = test system: SR leukemia
SF-539 CNS = test system: SF-539 CNS
LOX IMVI melanoma = test system: LOX IMVI melanoma
HCT-116 colon = test system: HCT-116 colon
M14 melanoma = test system: M14 melanoma
SF-295 CNS = test system: SF-295 CNS
SK-MEL-28 melanoma = test system: SK-MEL-28 melanoma
CAKI-1 renal = test system: CAKI-1 renal
PC-3 prostate = test system: PC-3 prostate
A498 renal = test system: A498 renal
OVCAR-3 ovarian = test system: OVCAR-3 ovarian
MOLT-4 leukemia = test system: MOLT-4 leukemia
SK-MEL-5 melanoma = test system: SK-MEL-5 melanoma
HCC-2998 colon = test system: HCC-2998 colon
SK-OV-3 ovarian = test system: SK-OV-3 ovarian
A549 NSCLC = test system: A549 NSCLC
MDA-MB-435 = test system: MDA-MB-435
SNB-75 CNS = test system: SNB-75 CNS
UO-31 renal = test system: UO-31 renal
786-0 renal = test system: 786-0 renal
T-47D breast = test system: T-47D breast
UACC-62 melanoma = test system: UACC-62 melanoma
RPMI-8226 leukemia = test system: RPMI-8226 leukemia
HL-60(TB) leukemia = test system: HL-60(TB) leukemia
SF-268 CNS = test system: SF-268 CNS
TK-10 renal = test system: TK-10 renal
SN12C renal = test system: SN12C renal
NCI/ADR-RES ovarian = test system: NCI/ADR-RES ovarian
MDA-MB-231 breast = test system: MDA-MB-231 breast
SW-620 colon = test system: SW-620 colon
KM12 colon = test system: KM12 colon
HT29 colon = test system: HT29 colon
OVCAR-4 ovarian = test system: OVCAR-4 ovarian

Q: For `COc1ccc2c(c1)cn1c3ccc(OC)cc3[nH]c(=O)c21`, which GI50 (ACHN renal) is on record?
A: < 0.0226 µM

Q: What about the TGI (ACHN renal) of the same compound?
A: 1.69 µM

Q: And the GI50 (NCI-H23 lung)?
A: < 0.0238 µM

Q: And the TGI (NCI-H23 lung)?
A: 0.934 µM

Q: What about the GI50 (SK-MEL-2 melanoma) of the same compound?
A: 0.0574 µM

Q: What about the TGI (SK-MEL-2 melanoma) of the same compound?
A: 1.66 µM

Q: What about the GI50 (RXF 393 renal) of the same compound?
A: 0.0257 µM

Q: What about the TGI (RXF 393 renal) of the same compound?
A: 1.79 µM

Q: What about the GI50 (OVCAR-8 ovarian) of the same compound?
A: < 0.0214 µM

Q: And the TGI (OVCAR-8 ovarian)?
A: 1.46 µM

Q: And the GI50 (NCI-H226 lung)?
A: 0.059 µM

Q: And the TGI (NCI-H226 lung)?
A: 8.97 µM

Q: And the TGI (MALME-3M melanoma)?
A: 2.75 µM

Q: What about the GI50 (NCI-H522 lung) of the same compound?
A: < 0.0134 µM

Q: What about the TGI (NCI-H522 lung) of the same compound?
A: 0.15 µM

Q: What about the GI50 (UACC-257 melanoma) of the same compound?
A: 14.6 µM

Q: What about the TGI (UACC-257 melanoma) of the same compound?
A: 29.5 µM

Q: What about the GI50 (OVCAR-5 ovarian) of the same compound?
A: < 0.0232 µM

Q: What about the TGI (OVCAR-5 ovarian) of the same compound?
A: 1.81 µM

Q: What about the GI50 (SNB-19 CNS) of the same compound?
A: < 0.0405 µM

Q: And the TGI (SNB-19 CNS)?
A: 7.36 µM

Q: And the GI50 (DU-145 prostate)?
A: < 0.0217 µM

Q: What about the GI50 (HCT-15 colon) of the same compound?
A: < 0.0177 µM

Q: What about the TGI (HCT-15 colon) of the same compound?
A: 1.11 µM

Q: What about the GI50 (BT-549 breast) of the same compound?
A: 0.0407 µM

Q: What about the TGI (BT-549 breast) of the same compound?
A: 1.17 µM

Q: What about the GI50 (EKVX NSCLC) of the same compound?
A: < 0.0256 µM

Q: What about the TGI (EKVX NSCLC) of the same compound?
A: 1.76 µM

Q: And the GI50 (COLO 205 colon)?
A: < 0.0175 µM

Q: What about the TGI (COLO 205 colon) of the same compound?
A: 0.0294 µM

Q: And the GI50 (U251 CNS)?
A: < 0.0172 µM

Q: And the TGI (U251 CNS)?
A: 1.25 µM

Q: What about the GI50 (HOP-62 NSCLC) of the same compound?
A: < 0.0252 µM

Q: And the TGI (HOP-62 NSCLC)?
A: 1.66 µM

Q: And the GI50 (IGROV1 ovarian)?
A: < 0.0155 µM

Q: What about the TGI (IGROV1 ovarian) of the same compound?
A: 0.813 µM

Q: And the GI50 (SR leukemia)?
A: < 0.01 µM

Q: And the TGI (SR leukemia)?
A: 1.1 µM

Q: And the GI50 (SF-539 CNS)?
A: < 0.0159 µM

Q: And the TGI (SF-539 CNS)?
A: < 0.028 µM

Q: What about the GI50 (LOX IMVI melanoma) of the same compound?
A: < 0.0206 µM

Q: And the TGI (LOX IMVI melanoma)?
A: 1.78 µM

Q: What about the GI50 (HCT-116 colon) of the same compound?
A: < 0.0157 µM

Q: What about the TGI (HCT-116 colon) of the same compound?
A: 1.05 µM

Q: And the GI50 (M14 melanoma)?
A: 0.027 µM

Q: And the TGI (M14 melanoma)?
A: 1.4 µM

Q: What about the GI50 (SF-295 CNS) of the same compound?
A: < 0.0169 µM

Q: And the GI50 (SK-MEL-28 melanoma)?
A: < 0.0285 µM

Q: What about the TGI (SK-MEL-28 melanoma) of the same compound?
A: 2.15 µM

Q: What about the GI50 (CAKI-1 renal) of the same compound?
A: < 0.01 µM

Q: And the GI50 (PC-3 prostate)?
A: < 0.0154 µM

Q: And the TGI (PC-3 prostate)?
A: 1.59 µM

Q: What about the GI50 (A498 renal) of the same compound?
A: < 0.0258 µM

Q: What about the GI50 (OVCAR-3 ovarian) of the same compound?
A: < 0.0152 µM

Q: What about the TGI (OVCAR-3 ovarian) of the same compound?
A: < 0.024 µM

Q: What about the GI50 (MOLT-4 leukemia) of the same compound?
A: < 0.0183 µM

Q: What about the TGI (MOLT-4 leukemia) of the same compound?
A: 1.04 µM

Q: What about the GI50 (SK-MEL-5 melanoma) of the same compound?
A: < 0.019 µM

Q: What about the TGI (SK-MEL-5 melanoma) of the same compound?
A: 0.76 µM

Q: What about the GI50 (HCC-2998 colon) of the same compound?
A: < 0.0188 µM

Q: What about the TGI (HCC-2998 colon) of the same compound?
A: 0.0679 µM

Q: What about the GI50 (SK-OV-3 ovarian) of the same compound?
A: < 0.0192 µM

Q: What about the TGI (SK-OV-3 ovarian) of the same compound?
A: 4.48 µM

Q: What about the GI50 (A549 NSCLC) of the same compound?
A: < 0.0205 µM

Q: What about the TGI (A549 NSCLC) of the same compound?
A: 1.33 µM

Q: What about the GI50 (MDA-MB-435) of the same compound?
A: < 0.01 µM

Q: What about the TGI (MDA-MB-435) of the same compound?
A: 0.0116 µM

Q: What about the GI50 (SNB-75 CNS) of the same compound?
A: 0.0203 µM

Q: And the TGI (SNB-75 CNS)?
A: 1.19 µM

Q: And the GI50 (UO-31 renal)?
A: < 0.0169 µM

Q: What about the TGI (UO-31 renal) of the same compound?
A: 1.77 µM

Q: And the GI50 (786-0 renal)?
A: < 0.0231 µM

Q: What about the TGI (786-0 renal) of the same compound?
A: 1.56 µM

Q: And the GI50 (T-47D breast)?
A: 1.04 µM

Q: What about the TGI (T-47D breast) of the same compound?
A: 2.61 µM

Q: And the GI50 (UACC-62 melanoma)?
A: < 0.0174 µM

Q: And the TGI (UACC-62 melanoma)?
A: 1.39 µM

Q: What about the GI50 (RPMI-8226 leukemia) of the same compound?
A: 0.0253 µM

Q: What about the TGI (RPMI-8226 leukemia) of the same compound?
A: 0.0984 µM

Q: And the GI50 (HL-60(TB) leukemia)?
A: < 0.0113 µM

Q: And the TGI (HL-60(TB) leukemia)?
A: < 0.0219 µM

Q: What about the GI50 (SF-268 CNS) of the same compound?
A: < 0.0229 µM

Q: What about the TGI (SF-268 CNS) of the same compound?
A: 1.47 µM

Q: What about the GI50 (TK-10 renal) of the same compound?
A: 1.17 µM

Q: What about the TGI (TK-10 renal) of the same compound?
A: 2.44 µM

Q: What about the GI50 (SN12C renal) of the same compound?
A: < 0.0232 µM

Q: And the TGI (SN12C renal)?
A: 1.65 µM

Q: What about the GI50 (NCI/ADR-RES ovarian) of the same compound?
A: < 0.01 µM

Q: And the GI50 (MDA-MB-231 breast)?
A: < 0.0188 µM

Q: What about the TGI (MDA-MB-231 breast) of the same compound?
A: 0.27 µM

Q: What about the GI50 (SW-620 colon) of the same compound?
A: < 0.0147 µM

Q: And the TGI (SW-620 colon)?
A: 1.36 µM

Q: What about the GI50 (KM12 colon) of the same compound?
A: < 0.0187 µM

Q: And the TGI (KM12 colon)?
A: 0.247 µM

Q: And the GI50 (HT29 colon)?
A: < 0.0155 µM

Q: And the TGI (HT29 colon)?
A: 0.281 µM

Q: What about the GI50 (OVCAR-4 ovarian) of the same compound?
A: 0.0382 µM

Q: What about the TGI (OVCAR-4 ovarian) of the same compound?
A: 4.92 µM
